pEC50: −log10 of the molar value.
Legend:
[1] = tested on: single cycle replicable HIV NL4-3 virions; experiment: single-cycle HIV-1 replication assay in HeLa cells (p24 ELISA); type: cell-based; details: for pEC50: Human immunodeficiency virus 1, NL43, HeLa, 72 h, read-out: Anti-HIV-1 activity (EC50)
in vitro = details: human
[2] = parameters: method as in PMID 27659398, PMID 21728968, PMID 22214459, PMID 21767569; details: cited from earlier work
HIV-1 integrase (IN) = tested on: HIV-1 integrase (IN); parameters: method as in PMID 27659398, PMID 21728968, PMID 22214459, PMID 21767569; details: cited from earlier work
HIV-1 = tested on: HIV-1; parameters: method as in PMID 27659398, PMID 21728968, PMID 22214459, PMID 21767569; details: cited from earlier work

Q: Which “SI (selectivity index, CC50/EC50 ratio)” value [1] does the source give for `O=C(O)C(O)=CC(=O)c1nc2ccccc2n1Cc1cccc(Cl)c1` [Compound 13f, 4-(1-(3-chlorobenzyl)-1H-benzo[d]imidazol-2-yl)-2-hydroxy-4-oxo-2-butenoic acid] here?
A: Its value is 7.4.

Q: And the pEC50 [1]?
A: Its pEC50 is 4.26.

Q: And the CC50 at 72 h (in vitro)?
A: Its CC50 at 72 h is 410 µM.

Q: Which “SI (selectivity index, CC50/EC50 ratio)” value [1] does the source give for `Cc1ccccc1Cn1c(C(=O)C=C(O)C(=O)O)nc2ccccc21` [Compound 13b, 4-(1-(2-methylbenzyl)-1H-benzo[d]imidazol-2-yl)-2-hydroxy-4-oxo-2-butenoic acid] here?
A: Its value is 9.8.

Q: And the pEC50 [1]?
A: Its pEC50 is 4.22.

Q: And the CC50 at 72 h (in vitro)?
A: Its CC50 at 72 h is 590 µM.

Q: For `O=C(O)/C(O)=C/C(=O)c1cccn1Cc1ccc(F)cc1` [L-731,988], which cell toxicity [2] is on record?
A: The cell toxicity was “low cell toxicity”.

Q: Which results are given for `COc1cccc(Cn2c(C(=O)C=C(O)C(=O)O)nc3ccccc32)c1` [Compound 13i, 4-(1-(3-methoxybenzyl)-1H-benzo[d]imidazol-2-yl)-2-hydroxy-4-oxo-2-butenoic acid]?
A: SI (selectivity index, CC50/EC50 ratio) [1]: 5.4; pEC50 [1]: 4.05; CC50 at 72 h (in vitro): 490 µM

Q: For `COc1cccc2c1c(C(=O)/C=C(\O)C(=O)O)cn2Cc1ccc(F)cc1` [CHI-1043], which “inhibitory activity in enzymatic assays” value (HIV-1 integrase (IN)) is on record?
A: Its value is “submicromolar”.

Q: What about the “inhibitory activity in cellular assays” value (HIV-1) of the same molecule?
A: The value was “submicromolar”.

Q: What about the cell toxicity [2] of the same molecule?
A: Its cell toxicity is “low cell toxicity”.

Q: Which “SI (selectivity index, CC50/EC50 ratio)” value [1] does the source give for `O=C(O)C(O)=CC(=O)c1nc2ccccc2n1Cc1ccccc1` [Compound 13a, 4-(1-benzyl-1H-benzo[d]imidazol-2-yl)-2-hydroxy-4-oxo-2-butenoic acid] here?
A: The value was 4.5.

Q: And the pEC50 [1]?
A: Its pEC50 is 3.96.

Q: What about the CC50 at 72 h (in vitro) of the same molecule?
A: Its CC50 at 72 h is 500 µM.

Q: What does the source list for `Cc1nnc(C(=O)NC(C)(C)c2nc(C(=O)NCc3ccc(F)cc3)c(O)c(=O)n2C)o1` [Raltegravir, reference compound]?
A: pEC50 [1]: 6.05; CC50 (in vitro): > 500 µM

Q: For `Cc1cccc(Cn2c(C(=O)C=C(O)C(=O)O)nc3ccccc32)c1` [Compound 13c, 4-(1-(3-methylbenzyl)-1H-benzo[d]imidazol-2-yl)-2-hydroxy-4-oxo-2-butenoic acid], which “SI (selectivity index, CC50/EC50 ratio)” value [1] is on record?
A: Its value is 5.7.

Q: And the pEC50 [1]?
A: The pEC50 was 4.12.

Q: What about the CC50 at 72 h (in vitro) of the same molecule?
A: Its CC50 at 72 h is 430 µM.

Q: What does the source list for `O=C(O)C(O)=CC(=O)c1nc2ccccc2n1Cc1ccccc1F` [Compound 13g, 4-(1-(2-fluorobenzyl)-1H-benzo[d]imidazol-2-yl)-2-hydroxy-4-oxo-2-butenoic acid]?
A: SI (selectivity index, CC50/EC50 ratio) [1]: 13.7; pEC50 [1]: 4.40; CC50 at 72 h (in vitro): 550 µM

Q: For `Cc1ccc(Cn2c(C(=O)C=C(O)C(=O)O)nc3ccccc32)cc1` [Compound 13d, 4-(1-(4-methylbenzyl)-1H-benzo[d]imidazol-2-yl)-2-hydroxy-4-oxo-2-butenoic acid], which “SI (selectivity index, CC50/EC50 ratio)” value [1] is on record?
A: Its value is 11.6.

Q: And the pEC50 [1]?
A: The pEC50 was 4.30.

Q: What about the CC50 at 72 h (in vitro) of the same molecule?
A: The CC50 at 72 h was 580 µM.

Q: For `O=C(O)C(O)=CC(=O)c1nc2ccccc2n1Cc1ccccc1Cl` [Compound 13e, 4-(1-(2-chlorobenzyl)-1H-benzo[d]imidazol-2-yl)-2-hydroxy-4-oxo-2-butenoic acid], which “SI (selectivity index, CC50/EC50 ratio)” value [1] is on record?
A: Its value is 2.4.

Q: What about the pEC50 [1] of the same molecule?
A: The pEC50 was 3.81.

Q: What about the CC50 at 72 h (in vitro) of the same molecule?
A: The CC50 at 72 h was 380 µM.

Q: Which results are given for `O=C(O)C(O)=CC(=O)c1nc2ccccc2n1Cc1cccc(F)c1` [Compound 13h, 4-(1-(3-fluorobenzyl)-1H-benzo[d]imidazol-2-yl)-2-hydroxy-4-oxo-2-butenoic acid]?
A: SI (selectivity index, CC50/EC50 ratio) [1]: 8.7; pEC50 [1]: 4.26; CC50 at 72 h (in vitro): 480 µM

Reference: publication PMC8170749, “4-(1-Benzyl-1H-benzo[d]imidazol-2-yl)-4-oxo-2-butenoic Acid Derivatives: Design, Synthesis and Anti-HIV-1 Activity” (Iranian Journal of Pharmaceutical Research : IJPR, 2021)
